What was measured:
[1] = ATTM solubility in sample solution (HPLC), methanol, ethanol and purified water; format: physicochemical; settings: ethanol, purified water
Experimental: The ATTM solubility was measured in sample solution (HPLC), methanol, ethanol and purified water.

[2] = Long-term stability study of ATTM samples, determined by HPLC; format: physicochemical
Experimental: ATTM Samples 1 and 2 were prepared essentially according to procedure in Example 1 starting with 12 kg of ammonium heptamolybdate. The isolated product was packed and stored immediately. Specifically, the samples were packaged corresponding to the packaging of the bulk material under argon in transparent anti-static polyethylene plastic bags, 90 10 10, 110 mm×170 mm, and the bags containing the samples were sealed with a plastic tie, and then subsequently packed in welded aluminium bags along with a drying agent in-between the two bags. Additional samples were packaged with ambient atmosphere in transparent anti-static polyethylene plastic bags, 90 10 10, 110 mm×170 mm. The bags containing the samples were sealed with a plastic tie, and then subsequently packed in welded aluminium bags along with a drying agent in-between the two bags.

## [NH4+].[NH4+].[SH-].[SH-].[S]=[Mo]=[S] [ATTM, Ammonium tetrathiomolybdate]
[1]
  ATTM solubility: lowest in alcohols, particularly in ethanol, and higher in water
[2]; after 6 months, by HPLC
  degradation of ATTM on storage: no significant degradation

## [NH4+].[NH4+].[SH-].[SH-].[S]=[Mo]=[S] [Sample 2, ammonium tetrathiomolybdate]
[2]; 5 °C, Air, 3 mo
  (NH4)6Mo7O24: <0.05 w/w %
  ATTM: 98.6 w/w %
  Dimer S6: <0.05 w/w %
  TM1: <0.05 w/w %
  TM2: <0.05 w/w %
  TM3: 1.13 w/w %
[2]; 5 °C, Air, 6 mo
  (NH4)6Mo7O24: <0.05 w/w %
  ATTM: 97.9 w/w %
  Dimer S6: <0.05 w/w %
  Insoluble materials: <0.1 w/w %
  TM1: <0.05 w/w %
  TM2: <0.05 w/w %
  TM3: 0.95 w/w %
[2]; 5 °C, Air, Initial
  (NH4)6Mo7O24: <0.05 w/w %
  ATTM: 98.8 w/w %
  Dimer S6: <0.05 w/w %
  Insoluble materials: <0.1 w/w %
  TM1: <0.05 w/w %
  TM2: <0.05 w/w %
  TM3: 1.01 w/w %
[2]; 5 °C, Ar, 3 mo
  (NH4)6Mo7O24: <0.05 w/w %
  ATTM: 99.0 w/w %
  Dimer S6: <0.05 w/w %
  TM1: <0.05 w/w %
  TM2: <0.05 w/w %
  TM3: 0.99 w/w %
[2]; 5 °C, Ar, 6 mo
  (NH4)6Mo7O24: <0.05 w/w %
  ATTM: 98.2 w/w %
  Dimer S6: <0.05 w/w %
  Insoluble materials: <0.1 w/w %
  TM1: <0.05 w/w %
  TM2: <0.05 w/w %
  TM3: 1.03 w/w %
[2]; 5 °C, Ar, Initial
  (NH4)6Mo7O24: <0.05 w/w %
  ATTM: 98.8 w/w %
  Dimer S6: <0.05 w/w %
  Insoluble materials: <0.1 w/w %
  TM1: <0.05 w/w %
  TM2: <0.05 w/w %
  TM3: 1.01 w/w %
[2]; −20 °C, Air, 3 mo
  (NH4)6Mo7O24: <0.05 w/w %
  ATTM: 99.4 w/w %
  Dimer S6: <0.05 w/w %
  TM1: <0.05 w/w %
  TM2: <0.05 w/w %
  TM3: 0.92 w/w %
[2]; −20 °C, Air, 6 mo
  (NH4)6Mo7O24: <0.05 w/w %
  ATTM: 98.2 w/w %
  Dimer S6: <0.05 w/w %
  Insoluble materials: <0.1 w/w %
  TM1: <0.05 w/w %
  TM2: <0.05 w/w %
  TM3: 1.13 w/w %
[2]; −20 °C, Air, Initial
  (NH4)6Mo7O24: <0.05 w/w %
  ATTM: 98.8 w/w %
  Dimer S6: <0.05 w/w %
  Insoluble materials: <0.1 w/w %
  TM1: <0.05 w/w %
  TM2: <0.05 w/w %
  TM3: 1.01 w/w %
[2]; −20 °C, Ar, 3 mo
  (NH4)6Mo7O24: <0.05 w/w %
  ATTM: 99.1 w/w %
  Dimer S6: <0.05 w/w %
  TM1: <0.05 w/w %
  TM2: <0.05 w/w %
  TM3: 1.07 w/w %
[2]; −20 °C, Ar, 6 mo
  (NH4)6Mo7O24: <0.05 w/w %
  ATTM: 98.2 w/w %
  Dimer S6: <0.05 w/w %
  Insoluble materials: <0.1 w/w %
  TM1: <0.05 w/w %
  TM2: <0.05 w/w %
  TM3: 0.98 w/w %
[2]; −20 °C, Ar, Initial
  (NH4)6Mo7O24: <0.05 w/w %
  ATTM: 98.8 w/w %
  Dimer S6: <0.05 w/w %
  Insoluble materials: <0.1 w/w %
  TM1: <0.05 w/w %
  TM2: <0.05 w/w %
  TM3: 1.01 w/w %

## [NH4+].[NH4+].[SH-].[SH-].[S]=[Mo]=[S] [Sample 1, ammonium tetrathiomolybdate]
[2]; 5 °C, Air, 3 mo
  (NH4)6Mo7O24: <0.05 w/w %
  ATTM: 99.2 w/w %
  Dimer S6: <0.05 w/w %
  TM1: <0.05 w/w %
  TM2: <0.05 w/w %
  TM3: 0.93 w/w %
[2]; 5 °C, Air, 6 mo
  (NH4)6Mo7O24: <0.05 w/w %
  ATTM: 98.6 w/w %
  Dimer S6: <0.05 w/w %
  Insoluble materials: <0.1 w/w %
  TM1: <0.05 w/w %
  TM2: <0.05 w/w %
  TM3: 0.94 w/w %
[2]; 5 °C, Air, Initial
  (NH4)6Mo7O24: <0.05 w/w %
  ATTM: 98.8 w/w %
  Dimer S6: <0.05 w/w %
  Insoluble materials: <0.1 w/w %
  TM1: <0.05 w/w %
  TM2: <0.05 w/w %
  TM3: 0.77 w/w %
[2]; 5 °C, Ar, 3 mo
  (NH4)6Mo7O24: <0.05 w/w %
  ATTM: 99.1 w/w %
  Dimer S6: <0.05 w/w %
  TM1: <0.05 w/w %
  TM2: <0.05 w/w %
  TM3: 0.96 w/w %
[2]; 5 °C, Ar, 6 mo
  (NH4)6Mo7O24: <0.05 w/w %
  ATTM: 99.0 w/w %
  Dimer S6: <0.05 w/w %
  Insoluble materials: <0.1 w/w %
  TM1: <0.05 w/w %
  TM2: <0.05 w/w %
  TM3: 0.97 w/w %
[2]; 5 °C, Ar, Initial
  (NH4)6Mo7O24: <0.05 w/w %
  ATTM: 98.8 w/w %
  Dimer S6: <0.05 w/w %
  Insoluble materials: <0.1 w/w %
  TM1: <0.05 w/w %
  TM2: <0.05 w/w %
  TM3: 0.77 w/w %
[2]; −20 °C, Air, 3 mo
  (NH4)6Mo7O24: <0.05 w/w %
  ATTM: 99.3 w/w %
  Dimer S6: <0.05 w/w %
  TM1: <0.05 w/w %
  TM2: <0.05 w/w %
  TM3: 0.93 w/w %
[2]; −20 °C, Air, 6 mo
  (NH4)6Mo7O24: <0.05 w/w %
  ATTM: 99.0 w/w %
  Dimer S6: <0.05 w/w %
  Insoluble materials: <0.1 w/w %
  TM1: <0.05 w/w %
  TM2: <0.05 w/w %
  TM3: 0.82 w/w %
[2]; −20 °C, Air, Initial
  (NH4)6Mo7O24: <0.05 w/w %
  ATTM: 98.8 w/w %
  Dimer S6: <0.05 w/w %
  Insoluble materials: <0.1 w/w %
  TM1: <0.05 w/w %
  TM2: <0.05 w/w %
  TM3: 0.77 w/w %
[2]; −20 °C, Ar, 3 mo
  (NH4)6Mo7O24: <0.05 w/w %
  ATTM: 99.5 w/w %
  Dimer S6: <0.05 w/w %
  TM1: <0.05 w/w %
  TM2: <0.05 w/w %
  TM3: 1.05 w/w %
[2]; −20 °C, Ar, 6 mo
  (NH4)6Mo7O24: <0.05 w/w %
  ATTM: 99.1 w/w %
  Dimer S6: <0.05 w/w %
  Insoluble materials: <0.1 w/w %
  TM1: <0.05 w/w %
  TM2: <0.05 w/w %
  TM3: 0.88 w/w %
[2]; −20 °C, Ar, Initial
  (NH4)6Mo7O24: <0.05 w/w %
  ATTM: 98.8 w/w %
  Dimer S6: <0.05 w/w %
  Insoluble materials: <0.1 w/w %
  TM1: <0.05 w/w %
  TM2: <0.05 w/w %
  TM3: 0.77 w/w %
